According to patent publication US11584733B2, “Selective histone deacetylase inhibitors for the treatment of human disease” (Shuttle Pharmaceuticals, Inc., priority 2017, dated 2023):

How the values were obtained:
[1] = system: MCF-7 breast cancer cells; experiment: Cell Proliferation and Cytotoxicity Assay (CCK-8); format: cell-based; conditions: FIG. 15
Description: Cell Counting Kit-8 (CCK-8) (Dojindo) was used to determine the cytotoxicity of cells. CCK-8 assay kit uses a water-soluble WST-8 tetrazolium salt. This tetrazolium salt produces a water-soluble formazan dye upon reduction in the presence of an electron mediator (dehydrogenase). When WST-8 is reduced by dehydrogenases in living cells an orange colored product (formazan) is produced that can be detected in a 96-well plate format. The amount of the formazan dye generated by dehydrogenases is directly proportional to the number of living cells.
For this assay the following materials were required:
1. Plate reader (450 nm filter);
5. Tissue Culture Media; and
6. Actively growing cells (75-80% confluency).
The following dilutions with cell media were made prior to performance of an assay: Test compound solutions were made in a range from nano-molar to micro-molar with a final DMSO concentration not exceeding 0.1% and a total volume (e.g., 300 ul) necessary to perform duplicates of 100 μl doses.
A Cell Proliferation and Cytotoxicity Assay was performed as follows:
1. Dispense 100 μl of cell suspension (5000 cells/well) in a 96-well plate equal to the number of treatments plus controls done in duplicate;
2. Allow seeded cells to plate for 24 hours in a humidified incubator (at 37° C., 5% CO2);
3. […]
7. Measure the absorbance at 450 nm using a micro-plate reader; and […]

[2] = biological target: Human recombinant HDAC1 (Homo sapiens, UniProt Q13547); experiment: HDAC isomer assay, Fluor-de-Lys, HDAC1; format: biochemical
Description: (§1) The HDAC isomer (HDAC1, 3, and 6) assays were performed as follows:
(§2) Materials: Human recombinant HDAC isomer (HDAC1, HDAC3, and HDAC6); Fluor-de-Lys HDAC substrates; 360 nm excitation 460 nm emission Plate Reader; Disposable pipettes; Pipet-aid; Pipette tips; Micro-pipetter; DMSO; Sterile micro-tubes and conical tubes; and Micro-centrifuge.
(§3) Test compounds and control preparation: All test compounds' stock solutions were made in 100% DMSO. Test compound dilutions were made in HDAC Assay buffer with a final concentration of DMSO less than or equal to 1%. Vehicle control was HDAC Assay buffer with 1% DMSO.
(§4) The reagents for the assay were prepared as follows:
(§5) 1. All kit components were defrosted and these, and all dilutions described below, were kept on ice until use. All undiluted kit components are stable for several hours on ice.
(§6) 2. A sufficient amount of HDAC source diluted in Assay Buffer (BML-KI143) was prepared to provide for the assays that were performed (# of wells×15 μl). A 30-fold dilution of the HeLa Extract means that 15p L contains 0.5 μl of the undiluted Extract, an appropriate amount to use per well.
(§7) 3. Dilution(s) of SAHA and/or Test Inhibitors were prepared in Assay Buffer (BML-KI143). […]
(§8) 6. Samples were read in a microtiter-plate reading fluorimeter capable of excitation at a wavelength in the range 350-380 nm and detection of emitted light in the range 440-460 nm.

[3] = biological target: Human recombinant HDAC3 (Homo sapiens, UniProt O15379); experiment: HDAC isomer assay, Fluor-de-Lys, HDAC3; format: biochemical
Description: as §1, §2, §3, §4, §5, §6, §7, §8

Human recombinant HDAC1, sequence (Q13547 whole entry): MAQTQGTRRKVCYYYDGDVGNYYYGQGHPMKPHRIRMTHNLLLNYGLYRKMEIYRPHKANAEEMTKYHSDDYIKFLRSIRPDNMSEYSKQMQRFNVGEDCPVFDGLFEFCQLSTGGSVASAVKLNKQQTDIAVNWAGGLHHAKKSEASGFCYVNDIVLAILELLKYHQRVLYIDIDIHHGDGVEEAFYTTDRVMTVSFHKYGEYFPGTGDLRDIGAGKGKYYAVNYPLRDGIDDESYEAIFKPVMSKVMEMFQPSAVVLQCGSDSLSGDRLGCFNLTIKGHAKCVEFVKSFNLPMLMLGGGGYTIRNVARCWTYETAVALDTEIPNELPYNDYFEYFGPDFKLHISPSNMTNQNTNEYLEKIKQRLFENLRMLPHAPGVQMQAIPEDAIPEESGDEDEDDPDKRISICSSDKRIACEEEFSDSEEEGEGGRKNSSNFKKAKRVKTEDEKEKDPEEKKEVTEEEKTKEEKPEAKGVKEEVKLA
Human recombinant HDAC3, sequence (O15379 whole entry): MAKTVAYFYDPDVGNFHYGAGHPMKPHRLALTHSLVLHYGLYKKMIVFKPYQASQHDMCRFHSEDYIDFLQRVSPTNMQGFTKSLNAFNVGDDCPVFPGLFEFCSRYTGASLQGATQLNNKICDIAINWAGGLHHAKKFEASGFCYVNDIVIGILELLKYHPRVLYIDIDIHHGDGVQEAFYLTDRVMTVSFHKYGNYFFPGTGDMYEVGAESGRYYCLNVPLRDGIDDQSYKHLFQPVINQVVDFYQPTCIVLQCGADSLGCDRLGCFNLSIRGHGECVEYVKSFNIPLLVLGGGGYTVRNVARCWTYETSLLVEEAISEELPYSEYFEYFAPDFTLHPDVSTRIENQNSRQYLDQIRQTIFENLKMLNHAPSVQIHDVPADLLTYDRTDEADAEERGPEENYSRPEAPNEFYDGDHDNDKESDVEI
Human recombinant HDAC3, sequence (Q9Y618 395-489 partner limits assumed): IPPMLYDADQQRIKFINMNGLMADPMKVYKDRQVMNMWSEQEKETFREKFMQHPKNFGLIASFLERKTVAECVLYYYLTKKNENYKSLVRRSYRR

`O=C(CCCCCCC(=O)NC1CCC(=O)NC1=O)NO` (stereo not drawn) [SP-2-59, N^1-(2,6-dioxopiperidin-3-yl)-N^8-hydroxyoctanediamide] was tested, and the EC50 ([1]; Homo sapiens, MCF7, 48 hours incubation, read-out: EC50 against MCF-7 breast cancer cells) was 5.03 µM and the MCF-7 cells killed ([1]; at about 10 μM) was 78%.

For `O=C(CCCCCCC(=O)Nc1cccc2c1CN(C1CCC(=O)NC1=O)C2=O)NO` (stereo not drawn) [SP-2-93, N^1-(2-(2,6-dioxopiperidin-3-yl)-1-oxoisoindolin-4-yl)-N^8-hydroxyoctanediamide], the EC50 ([2]; Example 4, FIG. 9) was 1.54 µM, the IC50 ([2]; Example 6, FIG. 18, 2 mg/mL formulation in 5% DMSO/40% PEG 400/55% PBS, read-out: IC50 against HDAC1 protein) was 1.54 µM and the EC50 ([3]; Example 4, FIG. 10) was 3.07 µM. It also gave an IC50 ([3]; Example 6, FIG. 18, 2 mg/mL formulation in 5% DMSO/40% PEG 400/55% PBS, read-out: IC50 against HDAC3 protein) of 3.07 µM.
